Results: patent US20030073705A1, “Method of treatment” (priority 2001, published 2003)

Columns and labels:
[1] = system: patients with Type 2 diabetes and nephropathy; assay: Triple-blind, randomized, placebo-controlled study: primary composite endpoint (doubling of serum creatinine, end stage renal disease or death) and components; assay type: in vivo, human
Protocol: (§1) The study involved male and female patients ranging in age from 31 to 70 years diagnosed with Type 2 diabetes and nephropathy; the latter defined as two urine albumin:creatinine ratios from a first morning specimen >300 mg/g (34 mg/mmol) (or a 24-hr urine protein >=500 mg (0.5 g/day)) and two serum creatinine values between 1.3 and 3.0 mg/dL (115 and 265 μmol/L) (lower limit of 1.5 mg/dL (133 μmol/L)for males >60 kg). […] Journal of the Renin Angiotensin Aldosterone System 2000;1(4):328-35. Patients were excluded from the study if diagnosed with Type 1 diabetes or nondiabetic renal disease, including renal artery stenosis. Patients with a history of heart failure, myocardial infarction or coronary artery bypass grafting within 1 month, cerebral vascular accident or percutaneous transluminal coronary angioplasty within 6 months or transient ischemic attacks within 1 year prior to enrollment were excluded.
(§2) During the 6-week screening phase, hypertensive patients continued to take their standard antihypertensive therapy. However, in those patients taking angiotensin I converting enzyme inhibitors or angiotensin II receptor antagonists, these agents were discontinued at the beginning of the screening phase and replaced by alternative open-label therapy at the investigator's discretion (diuretic, calcium-channel antagonist, α- or β-blocker, and/or centrally acting agent). […] After an additional 8 weeks, further antihypertensive therapy with agents described above (exclusive of angiotensin I converting enzyme inhibitors or angiotensin II receptor antagonists), were added or increased in dosage to achieve the goal trough sitting blood pressure.
(§3) Throughout the study, patients received standard medical care for treatment of diabetes, including routine measurements of HbAlc and fasting serum glucose concentrations. Study visits were scheduled every 3 months or more frequently if necessary for monitoring trough sitting blood pressure control, changes in laboratory measurements, adverse experiences and endpoints. Patients who discontinued early from blinded study therapy were followed every 3 months until study end for primary and secondary endpoints, blood pressure control and laboratory measurements. Those who could not return for clinic visits were contacted by telephone for endpoints of dialysis, renal transplantation or death.
(§4) The primary efficacy parameter was a composite endpoint of time to the first event of doubling of serum creatinine concentration, end stage renal disease, or death. End stage renal disease was defined as the need for chronic dialysis or renal transplantation. The prespecified secondary endpoint, cardiovascular morbidity and mortality, was a composite of myocardial infarction, stroke, hospitalization for heart failure or unstable angina, coronary or peripheral revascularization, and death from cardiovascular-related causes. Analyses of the components of both the primary and secondary composite endpoints also were prespecified. Other secondary endpoints included progression of renal disease as assessed by the slope of the reciprocal of serum creatinine concentration and changes in proteinuria. (See Mitch W E, Walser M, Buffington G A, Lemann J Jr. A simple method of estimating progression of chronic renal failure. Lancet 1976;2:1326-8.) An independent, blinded endpoint committee adjudicated all potential clinical endpoints occurring from the time of randomization until study termination.
(§5) A supportive, per-protocol analysis excluded patients who violated the inclusion/exclusion criteria, and censored patients 14 days after permanent discontinuation of study medication.

[2] = system: patients with Type 2 diabetes and nephropathy; assay: Trough sitting blood pressure during the study; assay type: in vivo, human
Protocol: The results reported here represent a mean follow-up time of 3.4 years.
as §1, §2
as §3, with “death. […]” for “death.”

[3] = system: patients with Type 2 diabetes and nephropathy; assay: Secondary endpoint: cardiovascular morbidity and mortality and components; assay type: in vivo, human
Protocol: as §1, §2, §4, §5

[4] = system: patients with Type 2 diabetes and nephropathy; assay: Secondary endpoints: proteinuria and progression of renal disease (slope of reciprocal of serum creatinine); assay type: in vivo, human; settings: on-treatment; p=0.01 versus placebo
Protocol: as §1
During the 6-week screening phase, hypertensive patients continued to take their standard antihypertensive therapy. […]
The primary efficacy parameter was a composite endpoint of time to the first event of doubling of serum creatinine concentration, end stage renal disease, or death. […] Other secondary endpoints included progression of renal disease as assessed by the slope of the reciprocal of serum creatinine concentration and changes in proteinuria. […]

[5] = system: patients with Type 2 diabetes and nephropathy; assay: Discontinuation from study therapy and adverse experiences; settings: n = 751
Protocol: as §1, §2, §3

[6] = intention-to-treat, n = 751, mean follow-up 3.4 years
[7] = losartan relative to placebo, p=0.010

Substance: 2-N-butyl-4-chloro-5-hydroxymethyl-1-[(2′-(1H-tetrazol-5-yl)biphenyl-4-yl)-methyl]imidazole, potassium salt [Losartan]
- Patients reaching primary composite endpoint (number) ([1]; intention-to-treat analysis): 327 patients
- Patients reaching primary composite endpoint (percent) ([1]; intention-to-treat analysis): 43.5%
- Primary composite endpoint, event rate ([1]; intention-to-treat analysis): 15.9 /100 patient years of follow-up
- Doubling of sCr, ESRD or Death (composite primary endpoint), patients ([1]; intention-to-treat, losartan 50 to 100 mg once daily +CT, n = 751, mean follow-up 3.4 years): 327 (43.5) n (%)
- Death, patients [1, 6]: 158 (21.0) n (%)
- Doubling of sCr or ESRD, patients [1, 6]: 226 (30.1) n (%)
- Doubling of sCr, patients [1, 6]: 162 (21.6) n (%)
- ESRD or Death, patients [1, 6]: 255 (34.0) n (%)
- ESRD, patients [1, 6]: 147 (19.6) n (%)
- Risk Reduction, Doubling of sCr, ESRD or Death (composite primary endpoint) ([1]; losartan relative to placebo, intention-to-treat, Cox model, p=0.024): 16%
- Risk Reduction, ESRD ([1]; losartan relative to placebo, p=0.002): 28%
- Risk Reduction, Doubling of sCr ([1]; losartan relative to placebo, p=0.006): 25%
- Risk Reduction, Doubling of sCr or ESRD [1, 7]: 21%
- Risk Reduction, ESRD or Death [1, 7]: 20%
- Risk Reduction, Death ([1]; losartan relative to placebo, p=0.882): −2%
- Decrease in risk of primary composite endpoint after correcting for blood pressure ([1]; mean arterial pressure as time-varying covariate, p=0.034): 15%
- Risk reduction in primary composite endpoint, per protocol analysis ([1]; patients who remained on treatment throughout the protocol, p=0.008): 22%
- Effect in pre-defined subgroups (primary composite, ESRD, ESRD or death) ([1]; patients with baseline serum creatinine greater than 2.0 mg/dL and urine albumin:creatinine ratio greater than 2000 mg/g): particularly beneficial
- Trough diastolic blood pressure ([2]; at 1 year, average): 78 mmHg
- Trough systolic blood pressure ([2]; at 1 year, average): 146 mmHg
- Mean arterial pressure ([2]; at 1 year, p<0.001 versus placebo): 100.9 mmHg
- Pulse pressure ([2]; at 1 year, p=0.047 versus placebo): 67.8 mmHg
- Trough diastolic blood pressure ([2]; at study end, average): 74 mmHg
- Trough systolic blood pressure ([2]; at study end, average): 140 mmHg
- Mean arterial pressure ([2]; at study end, p=0.59 versus placebo): 95.9 mmHg
- Pulse pressure ([2]; at study end, p=0.77 versus placebo): 66.7 mmHg
- Trough diastolic blood pressure ([2]; at year 2, average): 77 mmHg
- Trough systolic blood pressure ([2]; at year 2, average): 143 mmHg
- Pulse pressure ([2]; at year 2, p=0.37 versus placebo): 66.2 mmHg
- Mean arterial pressure ([2]; at year 2, p=0.38 versus placebo): 99.1 mmHg
- Composite endpoint of cardiovascular morbidity and mortality, difference versus placebo plus conventional therapy ([3]; losartan plus conventional therapy): no significant difference
- Patients with myocardial infarction ([3]; mean follow-up 3.4 years): 50 patients
- Patients with hospitalization for heart failure ([3]; time to first hospitalization, mean follow-up 3.4 years): 89 patients
- Risk reduction, hospitalization for heart failure ([3]; versus placebo, p=0.005): 32%
- Risk reduction, myocardial infarction ([3]; versus placebo, p=0.08, did not reach statistical significance): 28%
- Risk reduction, fatal or non-fatal cardiovascular event ([3]; versus placebo, p=0.26): 9%
- Rate of decline in renal function, median slope of reciprocal of serum creatinine concentration [4]: −0.056 dl/mg/yr
- Discontinued for Any Reason ([5]; discontinuation from study therapy): 341 (45.4) n (%)
- Clinical adverse experience causing discontinuation: End Stage Renal Disease [5]: 16 (2.1) n (%)
- Clinical adverse experience causing discontinuation: Heart Failure [5]: 23 (3.0) n (%)
- Clinical adverse experience causing discontinuation: Myocardial Infarction [5]: 7 (0.9) n (%)
- Clinical adverse experience causing discontinuation: Stroke [5]: 9 (1.2) n (%)
- Clinical adverse experience causing discontinuation: Worsening renal insufficiency [5]: 8 (1.1) n (%)
- Discontinuation from study therapy: Clinical Adverse Experience [5]: 128 (17.0) n (%)
- Discontinuation from study therapy: Deaths [5]: 65 (8.7) n (%)
- Discontinuation from study therapy: Laboratory Adverse Experience [5]: 21 (2.8) n (%)
- Laboratory adverse experience causing discontinuation: Hyperkalemia [5]: 9 (1.2) n (%)
